In US10494376B2, “Tetrahydroisoquinoline derived PRMT5-inhibitors” (CTXT PTY LTD, priority 2014, dated 2019):
Structures can show the parent of a compound that is named as a salt. Where two headings read alike, the source gives them in different places.

What was measured:
[1] = target: T1, Full-length PRMT5 enzyme (NCBI Reference sequence NP_006100.2) co-expressed with His6-MEP50 (Homo sapiens (Human), UniProt O14744); test: PRMT5 Biochemical Assay; conditions: 200 nM peptide substrate, 1 μM S-Adenosyl methionine, 4 hours at 37° C., Transcreener EPIGEN fluorescence polarisation
T1 sequence (O14744 whole entry): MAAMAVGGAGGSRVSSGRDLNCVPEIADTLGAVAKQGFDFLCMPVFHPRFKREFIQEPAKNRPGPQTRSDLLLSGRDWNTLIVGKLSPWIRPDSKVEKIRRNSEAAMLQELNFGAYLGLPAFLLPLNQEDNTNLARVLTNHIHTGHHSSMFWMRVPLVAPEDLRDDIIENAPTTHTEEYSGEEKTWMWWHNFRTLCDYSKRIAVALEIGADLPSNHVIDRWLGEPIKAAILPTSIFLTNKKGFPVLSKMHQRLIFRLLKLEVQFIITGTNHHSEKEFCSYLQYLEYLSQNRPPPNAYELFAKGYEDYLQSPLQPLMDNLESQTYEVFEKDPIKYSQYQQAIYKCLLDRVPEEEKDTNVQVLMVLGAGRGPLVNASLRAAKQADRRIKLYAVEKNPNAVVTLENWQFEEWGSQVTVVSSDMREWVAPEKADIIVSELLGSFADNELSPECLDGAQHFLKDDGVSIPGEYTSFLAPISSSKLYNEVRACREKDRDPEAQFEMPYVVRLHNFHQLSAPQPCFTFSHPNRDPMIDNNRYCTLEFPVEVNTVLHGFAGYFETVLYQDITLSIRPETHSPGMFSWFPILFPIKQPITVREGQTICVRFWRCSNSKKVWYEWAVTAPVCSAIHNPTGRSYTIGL
T1 sequence (Q9BQA1 whole entry partner): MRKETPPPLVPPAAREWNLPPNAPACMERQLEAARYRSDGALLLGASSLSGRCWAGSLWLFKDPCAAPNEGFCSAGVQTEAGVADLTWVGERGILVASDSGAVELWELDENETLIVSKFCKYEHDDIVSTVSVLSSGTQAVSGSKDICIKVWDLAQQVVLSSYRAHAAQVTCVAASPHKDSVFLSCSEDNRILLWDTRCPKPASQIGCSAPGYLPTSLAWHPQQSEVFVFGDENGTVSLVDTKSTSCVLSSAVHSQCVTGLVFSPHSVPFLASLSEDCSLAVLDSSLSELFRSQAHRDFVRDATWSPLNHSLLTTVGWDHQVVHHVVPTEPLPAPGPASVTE
Protocol: Compounds of the invention may be tested for in vitro activity in the following assay: A histone H4 derived peptide is used as substrate (amino acid sequence: […]N H2). Full-length PRMT5 enzyme (NCBI Reference sequence NP_006100.2) was co-expressed with His6-MEP50 in insect cells and purified via Nickel immobilized metal affinity and gel filtration chromatography (“the enzyme”).
The 6 μL assay reactions are run in Greiner brand black 384-well low volume plates. All reactions contained assay buffer (phosphate buffered saline, 0.01% (v/v) Tween-20, 0.01% (w/v) albumin from chicken egg white, 1 mM dithiothreitol, 200 nM peptide substrate, 1 μM S-Adenosyl methionine, and 15 ng/reaction enzyme, with the enzyme being omitted from negative control reactions. Compounds were added in a volume of 100 nL from dilution series prepared in DMSO, positive and negative control reactions receiving the same volume DMSO without compound. The plates were sealed with adhesive seals and incubated for 4 hours at 37° C. Reaction progress was measured using the Transcreener™ EPIGEN methyltransferase assay (BellBrook Labs, Madison, Wis.) as recommended by the manufacturer. To each reaction 2 μL detection mix were added, containing coupling enzymes, fluorescence polarisation tracer, and AMP antibody. Plates were incubated for 90 min before being read on a PerkinElmer EnVision™ plate reader in fluorescence polarisation mode. IC50 values were obtained from the raw readings by calculating percent inhibition (%1) for each reaction relative to controls on the same plate (% I=(I−CN)/(CP−CN) where CN/CP are the averages of the negative/positive reactions, respectively), then fitting the % I data vs. compound concentration [I] to % I=(A+((B−A)/(1+((C/[I])^D)))) where A is the lower asymptote, B is the upper asymptote, C is the IC50 value, and D is the slope.

[2] = tested on: symmetrical dimethylation of arginine (Di-Methyl Histone H4R3) in cell line TE11; test: PRMT5 Biomarker Assay (symmetrical dimethylation of arginine, Di-Methyl Histone H4R3 ELISA); assay type: cell-based; conditions: Homo sapiens, TE-11; TE11 cells, 72 h incubation, EpiQuik ELISA, corrected for total protein
Protocol: (§1) Compounds of the invention may be tested for potency to inhibit symmetrical dimethylation of arginine in the following assay:
The cell line TE11 was seeded at a density of 12,000 cells per well in 96 well tissue culture plates in DME medium and 10% foetal bovine serum, and allowed to adhere overnight under standard culture conditions (37° C., 5% CO2). Compound dilutions prepared in DMSO were added to the medium, with negative control wells reserved for treatment with DMSO only and positive controls receiving a potent PRMT5 inhibitor. The concentration of the inhibitor had been previously determined to give maximum inhibition of the methylation. After incubation for 72 h, cells were washed twice in ice-cold PBS, lysed in lysis buffer (20 mM Tris pH 7.4, 135 mM NaCl, 1.5 mM MgCl2, 1 mM EGTA, 10% glycerol and 1% Triton-X100), centrifuged at 15,000×g and the supernatants collected for subsequent analysis. The methylation level was determined using the EpiQuik™ Global Di-Methyl Histone H4R^3 Quantification ELISA Kit (Epigentek, Farmingdale, N.Y.) as per the manufacturer's recommendations; in parallel the total protein amount in the lysate was quantified using a Lowry protein assay. […]

[3] = target: T1, Full-length PRMT5 enzyme (NCBI Reference sequence NP_006100.2) co-expressed with His6-MEP50; test: Revised PRMT5 Biochemical Assay; conditions: 1 μM peptide substrate, 1 μM S-Adenosyl methionine, 4 hours at 37 degree Celsius, Transcreener EPIGEN fluorescence polarisation
Procedure, shortened: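 Full-length PRMT5 co-expressed with His6-MEP50 in insect cells (15 ng/reaction) was run with 1 μM H4-derived peptide and 1 μM SAM in PBS, 0.01% Tween-20, 0.01% albumin and 1 mM DTT for 4 h at 37 °C. Product was read by Transcreener EPIGEN fluorescence polarisation, and IC50 came from a 4-parameter fit.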

[4] = tested on: symmetrical dimethylation of arginine (Di-Methyl Histone H4 Arginine 3) in cell line TE11; test: Revised PRMT5 Biomarker Assay (Di-Methyl Histone H4 Arginine 3 immunofluorescence); assay type: cell-based; conditions: TE11 cells, 72 hours
Protocol: as §1
The cell line TE11 was seeded at a density of 6,000 cells per well in 96 well optical quality tissue culture plates in DME medium and 10% foetal bovine serum, and allowed to adhere for 5 hours under standard culture conditions (37 degree Celsius, 5% CO2). […] After incubation for 72 hours, the cells were fixed with 3.7% formaldehyde in PBS for 30 minutes at room temperature, washed with phosphate buffer saline and blocked with Odyssey blocking buffer (LI-COR, Lincoln, Nebr.). Rabbit anti-Di-Methyl Histone H4 Arginine 3 specific antibody (Epigentek) in Odyssey blocking buffer was added and incubated for 14 hours at 4 degree Celsius. […] Alternatively, the plates were imaged on a PerkinElmer Phenix high content imaging platform. […] The resulting mean intensity per cell was directly converted to percent inhibition as outlined above (IC50, imager based).

[5] = Homo sapiens, TE-11, PerkinElmer Envision fluorescence intensity, corrected for Hoechst 33342, read-out: IC50 - plate-reader based
[6] = Homo sapiens, TE-11, PerkinElmer Phenix high content imaging, mean intensity per cell, read-out: IC50 - image based

IC50 [1] [nM]	Structure (SMILES)	IC50 [3] [nM]	IC50 [4, 5] [nM]	other results
4690	O=C(NCC(O)CC1Cc2ccccc2CN1)c1ccc(C(=O)N2CCOCC2)cc1 (stereo not drawn) [Example 1, N-(2-Hydroxy-3-(1,2,3,4-tetrahydroisoquinolin-3-yl)propyl)-4-(morpholine-4-carbonyl)benzamide]	–	–	IC50 [2]: 956 nM
763	O=C(NCC(O)C1Cc2ccccc2CN1)c1ccc(C(=O)N2CCOCC2)cc1 (stereo not drawn) [Example 2, N-(2-hydroxy-2-(1,2,3,4-tetrahydroisoquinolin-3-yl)ethyl)-4-(morpholine-4-carbonyl)benzamide]	–	–	IC50 [2]: 7.2 nM
22000	O=C(NC[C@H](O)[C@H]1Cc2ccccc2CN1)c1ccc(C(=O)N2CCOCC2)cc1 [Example 53, N—((S)-2-hydroxy-2-((R)-1,2,3,4-tetrahydroisoquinolin-3-yl)ethyl)-4-(morpholine-4-carbonyl)benzamide hydrochloride]	21200	–	–
–	CC(=O)N1CCC(Oc2cc(C(=O)NC[C@@H](O)[C@@H]3Cc4ccccc4CN3)ccn2)CC1 [Example 102, 2-((1-Acetylpiperidin-4-yl)oxy)-N—((R)-2-hydroxy-2-((S)-1,2,3,4-tetrahydroisoquinolin-3-yl)ethyl)isonicotinamide]	68	5	–
–	O=C(NC[C@@H](O)[C@@H]1Cc2ccccc2CN1)c1ccc(C(=O)N2C3CCCC2COC3)cc1 [Example 103, 4-(3-Oxa-9-azabicyclo[3.3.1]nonane-9-carbonyl)-N—((R)-2-hydroxy-2-((S)-1,2,3,4-tetrahydroisoquinolin-3-yl)ethyl)benzamide]	65	4	–
–	O=C(NC[C@@H](O)[C@@H]1Cc2ccccc2CN1)c1ccnc(OC2CCOC2)c1 (stereo partly drawn) [Example 104, N—((R)-2-Hydroxy-2-((S)-1,2,3,4-tetrahydroisoquinolin-3-yl)ethyl)-2-((tetrahydrofuran-3-yl)oxy)isonicotinamide bis(2,2,2-trifluoroacetate)]	147	–	IC50 [4, 6]: 12 nM
–	COC(=O)N1[C@@H]2CC[C@H]1C[C@@H](Oc1cc(C(=O)NC[C@@H](O)[C@@H]3Cc4ccccc4CN3)ccn1)C2 [Example 105, Methyl (1R,3r,5S)-3-((4-(((R)-2-hydroxy-2-((S)-1,2,3,4-tetrahydroisoquinolin-3-yl)ethyl)carbamoyl)pyridin-2-yl)oxy)-8-azabicyclo[3.2.1]octane-8-carboxylate]	38	–	IC50 ([4]; PerkinElmer Phenix high content imaging, mean intensity per cell, read-out: IC50 - image based): 1 nM
–	O=C(NC[C@@H](O)[C@@H]1Cc2ccccc2CN1)c1ccc(C(=O)N2C3CCC2COC3)cc1C(F)F [Example 106, 4-(3-Oxa-8-azabicyclo[3.2.1]octane-8-carbonyl)-2-(difluoromethyl)-N—((R)-2-hydroxy-2-((S)-1,2,3,4-tetrahydroisoquinolin-3-yl)ethyl)benzamide]	212	–	IC50 [4, 6]: 5 nM
–	CCOc1cc(C(=O)N2C3CCC2COC3)ccc1C(=O)NC[C@@H](O)[C@@H]1Cc2ccc(C)cc2CN1 [Example 108, 4-(3-Oxa-8-azabicyclo[3.2.1]octane-8-carbonyl)-2-ethoxy-N—((R)-2-hydroxy-2-((S)-7-methyl-1,2,3,4-tetrahydroisoquinolin-3-yl)ethyl)benzamide]	17	1	–
